Experimental data from publication PMC10406626, “Structural displacement model of chitooligosaccharide transport through chitoporin” (The Journal of Biological Chemistry, 2023).
Several values for one entry are separate records, joined by “and”; a condition that tells them apart may be missing. Equal values may be shown once. Read-outs that look alike come from different tables or passages of the source.

Experiments:
maltoporin (LamB) = system: maltoporin (LamB); set-up: method as in PMID 11415317; conditions: cited from earlier work
truncated VhChiP [1] = molecular target: T1, truncated VhChiP (Vibrio campbellii, UniProt L0RVU0); experiment: Single-channel BLM recordings, chitohexaose titration of truncated VhChiP (without or with N-plug peptide); assay type: binding; conditions: for K (equilibrium binding constant) / koff / kon: truncated
Method: Single-channel analysis using the BLM reconstitution technique was performed as described previously ([13], [34], [35]). The lipid bilayer cuvette consisted of a 25-μm thick Teflon film sandwiched between two chambers. […] The chambers were filled with electrolyte solution and Ag/AgCl electrodes immersed on either side of the Teflon film. The electrolyte used was 1 M KCl buffered with 20 mM Hepes, pH 7.4. 1,2-diphytanoyl-sn-glycero-3-phosphatidylcholine (Avanti Polar Lipids) was used for lipid bilayer formation. To form the bilayer, the aperture was first prepainted with 1 μl of 1% (v/v) hexadecane in pentane (Sigma-Aldrich). One of the electrodes was used as the ground (cis), while the other electrode (trans) was connected to the head-stage of an Axopatch 200B amplifier (Axon Instruments). VhChiP (20–100 ng μL^−1) was added to the solution on the cis side of the lipid membrane. At applied transmembrane potentials of ±100 mV, a single channel was frequently inserted within a few minutes. The protein solution in the chamber was then gently diluted by multiple additions of the working electrolyte, to prevent multiple insertions. Single-channel current measurements were performed in the voltage-clamp mode, with the internal filter set at 10 kHz. Amplitude, probability, and single-channel analyses were performed using pClamp v.10.5 software (https://www.moleculardevices.com/products/axon-patch-clamp-system/acquisition-and-analysis-software/pclamp-software-suite) (all from Molecular Devices). […] Occlusions of ion flow caused by sugar diffusion through the inserting channel were usually recorded for 2 min. To determine the kinetics of sugar translocation on individual subunit blockages, discrete concentrations of chitohexaose (0, 0.25, 0.5, and 1.0 μM) was tested. To study channel blocking behaviors of the N-plug, the first nine amino acids (Asp^1-Lys^9) (the so-called N-plug peptide) that plugged the channel was synthesized (GenScript). Two concentrations of the peptide (10 and 40 μM) were added to either the cis or the trans side of the chamber, containing with or without 1 μM of chitohexaose on the cis side.
(§1) The equilibrium binding constant K (M^-1) was estimated from the decrease in the ion conductance in the presence of increasing concentrations of sugar using the following equation ([36]):(1) Gmax−Gc/Gmax=Imax−Ic/Imax=K[C]/(K[C]+1)
(§2) Gmax is the average conductance of the fully open VhChiP channel, and Gc is the average conductance at a given concentration [c] of chitohexaose. Imax is the initial current through the fully open channel in the absence of sugar, and Ic is the current at a particular sugar concentration. The titration experiments were also analyzed using double reciprocal plots.

[2] = molecular target: truncated VhChiP mixed with the N-plug peptide (Vibrio campbellii, UniProt L0RVU0); experiment: ITC, chitohexaose into truncated VhChiP mixed with N-plug peptide; assay type: binding; conditions: 25 °C, protein 20 μM, N-plug 5 μM
Method: (§3) ITC experiments were carried out at least three times using the MicroCal PEAQ-ITC (Malvern Instruments Ltd) at 25 ± 1 °C with a stirring speed of 500 rpm. For titration experiments, 40 μl of chitohexaose or the N-plug was titrated from a syringe into the 300 μl-calorimeter cells containing 0.05% (v/v) LDAO, 20 mM sodium phosphate buffer, pH 7.5, and protein solution. Injections (2 μl per injection) were repeated 19 times over 150-s intervals. The background was measured by injecting the corresponding ligand into the cell containing only the buffer. The ITC data were collected and analyzed using the MicroCal PEAQ-ITC analysis software (https://www.malvernpanalytical.com/en/support/product-support/software/microcal-peaq-itc-analysis-software-v141). The ITC profile obtained by injecting the corresponding ligand into the reaction cell containing buffer without VhChiP was subtracted from the […] dataset. The resultant data were fitted by a single-site binding model with the nonlinear least square algorithm.

N-plug peptide = N-plug peptide (Vibrio campbellii, UniProt L0RVU0); experiment: ITC, chitohexaose into synthesized N-plug peptide; assay type: binding; conditions: 25 °C
Method: as §3

truncated VhChiP [3] = molecular target: T1, truncated VhChiP; experiment: ITC, chitohexaose into truncated VhChiP; assay type: binding; conditions: 25 °C
Method: as §3

EcChiP [4] = system: EcChiP; set-up: method as in PMID 27226611, PMID 28972167; conditions: single-channel analysis; cited from earlier work
WT VhChiP [5] = molecular target: T2, WT VhChiP (Vibrio campbellii, UniProt L0RVU0); experiment: Single-channel BLM recordings, chitohexaose titration of WT VhChiP; assay type: binding; conditions: no N-plug peptide
T2 sequence (L0RVU0 26-375): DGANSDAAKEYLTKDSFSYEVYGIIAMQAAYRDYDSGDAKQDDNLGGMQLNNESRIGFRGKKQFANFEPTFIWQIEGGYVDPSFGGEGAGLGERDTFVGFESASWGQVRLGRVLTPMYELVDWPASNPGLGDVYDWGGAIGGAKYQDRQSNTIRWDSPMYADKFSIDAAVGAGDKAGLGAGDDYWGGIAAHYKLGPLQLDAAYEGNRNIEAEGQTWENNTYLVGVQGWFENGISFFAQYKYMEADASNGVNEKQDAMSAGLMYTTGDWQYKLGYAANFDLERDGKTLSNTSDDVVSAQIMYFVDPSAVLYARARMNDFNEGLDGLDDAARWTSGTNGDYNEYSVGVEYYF
Method: Single-channel analysis using the BLM reconstitution technique was performed as described previously ([13], [34], [35]). The lipid bilayer cuvette consisted of a 25-μm thick Teflon film sandwiched between two chambers. […] The chambers were filled with electrolyte solution and Ag/AgCl electrodes immersed on either side of the Teflon film. The electrolyte used was 1 M KCl buffered with 20 mM Hepes, pH 7.4. 1,2-diphytanoyl-sn-glycero-3-phosphatidylcholine (Avanti Polar Lipids) was used for lipid bilayer formation. To form the bilayer, the aperture was first prepainted with 1 μl of 1% (v/v) hexadecane in pentane (Sigma-Aldrich). One of the electrodes was used as the ground (cis), while the other electrode (trans) was connected to the head-stage of an Axopatch 200B amplifier (Axon Instruments). VhChiP (20–100 ng μL^−1) was added to the solution on the cis side of the lipid membrane. At applied transmembrane potentials of ±100 mV, a single channel was frequently inserted within a few minutes. The protein solution in the chamber was then gently diluted by multiple additions of the working electrolyte, to prevent multiple insertions. Single-channel current measurements were performed in the voltage-clamp mode, with the internal filter set at 10 kHz. Amplitude, probability, and single-channel analyses were performed using pClamp v.10.5 software (https://www.moleculardevices.com/products/axon-patch-clamp-system/acquisition-and-analysis-software/pclamp-software-suite) (all from Molecular Devices). To investigate sugar translocation, chitooligosaccharide was added to the cis side of the chamber at a final concentration of 5 μM. Occlusions of ion flow caused by sugar diffusion through the inserting channel were usually recorded for 2 min. To determine the kinetics of sugar translocation on individual subunit blockages, discrete concentrations of chitohexaose (0, 0.25, 0.5, and 1.0 μM) was tested. To study channel blocking behaviors of the N-plug, the first nine amino acids (Asp^1-Lys^9) (the so-called N-plug peptide) that plugged the channel was synthesized (GenScript). Two concentrations of the peptide (10 and 40 μM) were added to either the cis or the trans side of the chamber, containing with or without 1 μM of chitohexaose on the cis side.
as §1, §2

VhChiP D1A mutant [6] = molecular target: T3, VhChiP D1A mutant (Vibrio campbellii, UniProt L0RVU0, D26A); experiment: Single-channel BLM recordings, chitohexaose titration of D1A mutant; assay type: binding; conditions: sugar on cis side
T3 sequence (L0RVU0 26-375 D26A): T2 sequence (L0RVU0 26-375)
Method: Single-channel analysis using the BLM reconstitution technique was performed as described previously ([13], [34], [35]). The lipid bilayer cuvette consisted of a 25-μm thick Teflon film sandwiched between two chambers. […] The chambers were filled with electrolyte solution and Ag/AgCl electrodes immersed on either side of the Teflon film. The electrolyte used was 1 M KCl buffered with 20 mM Hepes, pH 7.4. 1,2-diphytanoyl-sn-glycero-3-phosphatidylcholine (Avanti Polar Lipids) was used for lipid bilayer formation. To form the bilayer, the aperture was first prepainted with 1 μl of 1% (v/v) hexadecane in pentane (Sigma-Aldrich). One of the electrodes was used as the ground (cis), while the other electrode (trans) was connected to the head-stage of an Axopatch 200B amplifier (Axon Instruments). VhChiP (20–100 ng μL^−1) was added to the solution on the cis side of the lipid membrane. At applied transmembrane potentials of ±100 mV, a single channel was frequently inserted within a few minutes. […] Occlusions of ion flow caused by sugar diffusion through the inserting channel were usually recorded for 2 min. […]
Gmax is the average conductance of the fully open VhChiP channel, and Gc is the average conductance at a given concentration [c] of chitohexaose. […] The titration experiments were also analyzed using double reciprocal plots.

EcChiP [7] = experiment: Literature single-channel analysis, EcChiP; assay type: binding, E. coli; conditions: same sugar
VhChiP D1A mutant [8] = molecular target: T3, VhChiP D1A mutant; experiment: ITC, chitohexaose into D1A mutant; assay type: binding; conditions: 25 °C
Method: as §3

WT VhChiP [9] = molecular target: T2, WT VhChiP; experiment: ITC, chitohexaose into WT VhChiP; assay type: binding; conditions: 25 °C
Method: as §3

CymA = system: CymA; set-up: method as in PMID 10455198; conditions: cited from earlier work
[10] = molecular target: N-terminally truncated VhChiP (lacking the N-plug) (Vibrio campbellii (formerly Vibrio harveyi) ATCC BAA-1116); experiment: crystal structure; truncated VhChiP, ligand-free (C121, a single trimer per asymmetric unit) and cocrystallised with chitohexaose (P1, two trimers per asymmetric unit)
ScrY = system: ScrY; set-up: method as in PMID 9691119; conditions: cited from earlier work
[11] = sugar on cis side, N-plug peptide on trans side
[12] = sugar on cis side, no N-plug peptide
[13] = sugar on trans side, no N-plug peptide

maltohexaose
binding constant (K) (maltoporin (LamB)): 13,600 M^−1

N-plug peptide: synthesized peptide corresponding to the first nine residues (DGANSDAAK, Asp1-Lys9) of VhChiP
channel blocking events (truncated VhChiP [1]; truncated channel, no sugar, peptide at 10 and 40 μM on trans side, +100 mV, 1 M KCl, 20 mM Hepes pH 7.4): rare and short-lived blocking events

CC(=O)NC1C(O)OC(CO)C(OC2OC(CO)C(OC3OC(CO)C(OC4OC(CO)C(OC5OC(CO)C(OC6OC(CO)C(O)C(O)C6NC(C)=O)C(O)C5NC(C)=O)C(O)C4NC(C)=O)C(O)C3NC(C)=O)C(O)C2NC(C)=O)C1O (stereo not drawn) [chitohexaose]
Kd [2]: 2.9 ± 0.07 µM
n (site), stoichiometry [2]: 2.3 ± 0.2
Kd (N-plug peptide; N-plug 500 μM, no protein): 2600 ± 120 µM
n (site), stoichiometry (N-plug peptide; N-plug peptide alone): 1.0 ± 0.02
n (site), stoichiometry (truncated VhChiP [3]): 2.8 ± 0.1
Kd (truncated VhChiP [3]; one-site binding fit): 10 ± 0.3 µM
K value (EcChiP [4]): 50,000 M^−1
K (equilibrium binding constant) (WT VhChiP [5]; WT, sugar on cis side): 250,000 M^−1
koff (WT VhChiP [5]; WT, sugar on cis side): 270 ± 400 s⁻¹
τc (average residence time) (WT VhChiP [5]; WT, sugar on cis side): 3.7 ± 0.3 ms and 3.7 ± 0.4 ms
kon (WT VhChiP [5]; WT, sugar on cis side, 1 M KCl, 20 mM Hepes pH 7.4, +100 mV): 68 ± 1.4 × 10^6 M^−1s^−1
K (equilibrium binding constant) (WT VhChiP [5]; WT, sugar on trans side): 240,000 M^−1
koff (WT VhChiP [5]; WT, sugar on trans side, read-out: koff): 210 ± 500 s⁻¹
kon (WT VhChiP [5]; WT, sugar on trans side, read-out: kon): 5e+07 ± 1.2e+06 M⁻¹ s⁻¹
kon (WT VhChiP [5]; pH 7.4, WT, sugar on cis side, 1 M KCl, 20 mM Hepes pH 7.4, +100 mV): 5.6e+07 ± 1e+07 M⁻¹ s⁻¹
K of D1A mutant less than WT channel (VhChiP D1A mutant [6]): 2.5 fold
K of EcChiP less than that of VhChiP (EcChiP [7]): about 10 fold
reduction in the binding affinity, truncated vs WT (truncated VhChiP [1]; from Table 2): 22.3 fold
K (equilibrium binding constant) (truncated VhChiP [1]; sugar on cis side, N-plug peptide on cis side): incalculable
K (equilibrium binding constant) (truncated VhChiP [1]; [11]): 255,000 M^−1
koff (truncated VhChiP [1]; [11]): 220 ± 10 s⁻¹
kon (truncated VhChiP [1]; [11]): 5.6e+07 ± 100000 M⁻¹ s⁻¹
K (equilibrium binding constant) (truncated VhChiP [1]; [12]): 11,000 M^−1
koff (truncated VhChiP [1]; [12]): 500 ± 100 s⁻¹
K (equilibrium binding constant) (truncated VhChiP [1]; [13]): 23,000 M^−1
koff (truncated VhChiP [1]; [13]): 300 ± 100 s⁻¹
kon (truncated VhChiP [1]; [13]): 6.8e+06 ± 500000 M⁻¹ s⁻¹
Kd (VhChiP D1A mutant [8]): 1.2 ± 0.2 µM
n (site), stoichiometry (VhChiP D1A mutant [8]): 3.0 ± 0.1
n (site), stoichiometry (WT VhChiP [9]): 3.2 ± 0.1
Kd (WT VhChiP [9]; one-site binding fit): 0.3 ± 0.06 µM

cyclodextrin
binding constant (K) (CymA): 31,300 M^−1

N-terminally truncated VhChiP (lacking the N-plug) (domain or fragment)
stoichiometry N [10]: 3

OC[C@H]1O[C@@](CO)(O[C@H]2O[C@H](CO)[C@@H](O)[C@H](O)[C@H]2O)[C@@H](O)[C@@H]1O [sucrose]
binding constant (K) (ScrY): 80 M⁻¹
